{
  "source": "paper PMC10006169",
  "about": "“A phase I trial of LXS196, a protein kinase C (PKC) inhibitor, for metastatic uveal melanoma” (British Journal of Cancer, 2023)",
  "key": {"[1]": {"test_system": "UM cell lines containing mutant GNAQ or GNA11", "settings": "cited from earlier work"}, "[2]": {"test_system": "pPKC delta", "assay": "pPKC delta in PBMCs", "type": "in vivo, human", "settings": "all dose levels", "excerpt": "Fresh metastatic tumour biopsies were collected at baseline (prior to first dose) and on treatment at C1D15 to evaluate the modulation of PKC substrate proteins in tumours following exposure to LXS196 and to perform exploratory transcriptome and targeted DNA sequencing. Whole blood samples (peripheral blood mononuclear cells; PBMCs) were collected pre-dose on C1D1 and D15, and at various time points post-dose on C1D1, D2, D3, D15 and D16 to evaluate the modulation of PKC substrate proteins in a surrogate tissue. Owing to the exploratory nature of this phase I study, formal statistical tests were not planned to be performed. Data are presented using descriptive statistics and visualisations. Continuous variables are described with the mean and range. Categorical variables are described using counts and percentages. PFS is described using the Kaplan–Meier (KM) method."}},
  "data": [
    {"smiles": "CC1(N)CCN(c2cccnc2NC(=O)c2nc(-c3ncccc3C(F)(F)F)cnc2N)CC1", "note": "[LXS196]", "values": [
      {"measurement": "Cellular activity", "setting": "[1]", "value": "cellular activity restricted to UM cell lines containing mutant GNAQ or GNA11"},
      {"measurement": "Time post-dose to reduction in pPKC delta in PBMCs", "setting": "[2]", "value": "≤ 6", "unit": "h"}
    ]}
  ]
}
